Experimental data from US20070232575A1, “Treatment of Pulmonary Artery Hypertension with Dhea, Dheas, Dhea Analogs, or Dhea Derivatives” (priority 2004, published 2007).
Entries after “also recorded” stand apart in the source; their conditions may differ.

Columns and labels:
acute hypoxic challenge = assay: Pressure response of the PA to acute hypoxic challenge; assay type: in vivo, rat; conditions: 3 weeks of hypoxia under DHEA treatment; response disappeared without DHEA
Method: To determine the effect of the chronic hypoxia treatment-induced CH-PAH and to determine the effect of DHEA administration on PAP, the following PAP measurement method was used. Rats were anaesthetized with ketamine 50 mg/kg and xylazine 10 mg/kg by i.p. injection. […] The effect of DHEA on the systemic blood pressure was controlled by another catheter placed into the left carotid artery. Throughout all the experiments, heart rate and oxygen saturation were monitored. Acute hypoxic stress with fraction of inspired O2 of 10% were applied by administration of an air plus nitrogen gas mixture. The fraction of inspired O2 was monitored with an oxygen analyzer (Servomex, Crowborough, Great Britain), and the effects on the PAP were measured over a 10-15 minute period.

PASMCs = assay: Resting [Ca2+]i of PASMCs from orally DHEA-treated CH rats (indo-1); assay type: in vivo, rat; conditions: for effect on [Ca2+]i of PASMCs: CH rats
Method: (§1) The heart and lungs were removed and intrapulmonary arteries (IPAs) (150-300 μm of internal diameter) were then dissected. The adventitial and intimal layers were removed. For contraction experiments, rings (3 mm in length) were prepared.
As mentioned earlier, Ca^2+ is thought to play an important role in the response to chronic hypoxia. To measure the effects of DHEA on [Ca^2+]i of individual PASMCs, a [Ca^2+]i-sensitive fluorophore, indo-1 (Calbiochem, San Diego, Calif.), was employed. PASMCs were loaded with indo-1 by incubation in physiological salt solution (139.6 mM NaCl/6.2 mM KCl/1 mM MgCl2/12.1 mM glucose/10 mM Hepes) containing 1 μM indo-1 penta-acetoxymethyl ester (Indo-1 a.m.) for 25 minutes at room temperature. The recording system included a Nikon Diaphot inverted microscope fitted with epifluorescence. The studied cell was illuminated at 360 nm and counted simultaneously at 405 nm and 480 nm by two photomultipliers (P100, Nikon). […] [Ca^2+]i was estimated from the 405:480 ratio (Bonnet, S., et al. (2001) Am. J. Physiol. 281, L193-L201).

[1] = tested on: chronic hypoxic-pulmonary artery hypertension (CH-PAH); assay: Mean pulmonary arterial pressure (PAP) in chronic hypoxic (CH-PAH) rat model; assay type: in vivo
Method: To study the mechanisms of PAH and its possible treatments, an animal model was utilized. The placement of rats in a hypobaric chamber for 7 to 21 days induced chronic hypoxia, resulting in CH-PAH, a useful model system for studying mammalian PAH.
(§2) The rat model experiments were performed as follows. Adult male Wistar rats (220-240 g) were randomized into five groups. […] Intravascular administration was performed via the catheter inserted in the right jugular vein.

[2] = tested on: chronic hypoxic-pulmonary artery hypertension (CH-PAH); assay: Echocardiography: right ventricular (RV) wall thickness in CH rats; assay type: in vivo, rat
Method: as §2
To perform this procedure, the rats were first anaesthetized.

PASMCs from CH rats = assay: In vitro DHEA treatment of PASMCs, resting [Ca2+]i, with K channel blockers and pathway inhibitors; assay type: cell-based, rat
Method: as §1
As mentioned earlier, Ca^2+ is thought to play an important role in the response to chronic hypoxia. To measure the effects of DHEA on [Ca^2+]i of individual PASMCs, a [Ca^2+]i-sensitive fluorophore, indo-1 (Calbiochem, San Diego, Calif.), was employed. […] The recording system included a Nikon Diaphot inverted microscope fitted with epifluorescence.
To further examine how DHEA functions to decrease the [Ca^2+]i in PASMCs, the following experiment was performed.

BKCa [3] = biological target: T1, BKCa (Rattus norvegicus, UniProt Q62976); assay: IbTx-induced contraction of IPA rings from CH-DHEA rats; assay type: in vivo; conditions: for increase of tension induced by IbTx: rings from CH-DHEA rats compared with control and CH rats
T1 construct: from tissue; host or cells: intrapulmonary artery rings of adult male Wistar rats
T1 sequence (Q62976 whole entry): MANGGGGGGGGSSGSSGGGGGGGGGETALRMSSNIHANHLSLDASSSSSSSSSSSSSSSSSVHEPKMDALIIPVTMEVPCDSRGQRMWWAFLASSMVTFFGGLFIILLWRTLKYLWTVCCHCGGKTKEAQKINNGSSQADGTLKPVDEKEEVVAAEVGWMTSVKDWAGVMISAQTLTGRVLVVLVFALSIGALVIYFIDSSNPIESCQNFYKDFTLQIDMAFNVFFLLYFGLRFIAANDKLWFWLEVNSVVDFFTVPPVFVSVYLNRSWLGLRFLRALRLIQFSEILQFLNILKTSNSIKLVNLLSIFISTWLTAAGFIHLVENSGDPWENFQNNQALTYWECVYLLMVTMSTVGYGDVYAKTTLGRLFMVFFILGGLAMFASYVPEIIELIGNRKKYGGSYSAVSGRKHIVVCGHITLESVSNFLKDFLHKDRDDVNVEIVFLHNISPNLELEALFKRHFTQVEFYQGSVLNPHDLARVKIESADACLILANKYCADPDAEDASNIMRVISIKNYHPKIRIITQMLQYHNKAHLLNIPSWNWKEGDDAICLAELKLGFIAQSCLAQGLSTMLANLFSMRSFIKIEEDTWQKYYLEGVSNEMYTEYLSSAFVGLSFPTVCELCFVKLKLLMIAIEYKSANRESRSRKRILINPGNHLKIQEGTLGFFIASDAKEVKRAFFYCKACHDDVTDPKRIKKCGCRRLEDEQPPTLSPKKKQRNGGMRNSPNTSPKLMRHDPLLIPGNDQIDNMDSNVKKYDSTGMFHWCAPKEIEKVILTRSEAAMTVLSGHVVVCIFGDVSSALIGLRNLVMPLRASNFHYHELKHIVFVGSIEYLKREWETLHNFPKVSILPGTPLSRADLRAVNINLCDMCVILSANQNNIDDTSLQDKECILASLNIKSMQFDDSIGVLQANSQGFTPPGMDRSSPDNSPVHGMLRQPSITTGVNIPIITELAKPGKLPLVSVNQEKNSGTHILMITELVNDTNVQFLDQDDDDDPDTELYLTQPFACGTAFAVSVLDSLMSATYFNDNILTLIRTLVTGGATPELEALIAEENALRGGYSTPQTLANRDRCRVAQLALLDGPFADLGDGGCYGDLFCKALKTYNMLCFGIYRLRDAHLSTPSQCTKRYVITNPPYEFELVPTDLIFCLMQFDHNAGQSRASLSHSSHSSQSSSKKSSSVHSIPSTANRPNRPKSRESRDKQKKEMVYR
T1 sequence (P97678 whole entry partner): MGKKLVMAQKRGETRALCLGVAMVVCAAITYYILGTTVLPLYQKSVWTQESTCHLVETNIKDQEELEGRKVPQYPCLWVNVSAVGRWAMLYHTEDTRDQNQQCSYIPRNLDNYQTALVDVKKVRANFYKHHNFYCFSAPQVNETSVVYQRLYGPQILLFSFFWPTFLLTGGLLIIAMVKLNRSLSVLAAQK
Method: Statistical analyses for the experiments described herein were performed by using NCSS 5.0 software (NCSS, Kaysville, Utah). Values were expressed as mean±SEM. Contractions were expressed as a percentage of K^+-rich (80 mM) solution-induced contractions. Intergroup differences were assessed by a repeated-measures ANOVA or factorial ANOVA, as appropriate. Post hoc analysis used a Fisher multiple comparison test. For some comparisons, the Pearson product moment correlation coefficient between pairs of variables was used as indicated (ORIGIN 5.0, OriginLab, Northampton, Mass.). Regarding the number of experiments, (n) refers to the number of rings or cells and (N) to the number of animals. Differences were considered significant when P<0.05.
as §1
CH induces remodeling of the intrapulmonary artery (IPA) in the rat model of CH-PAH. To examine the changes in the IPA wall upon CH exposure, the following method was performed. Isometric contractions were measured in rings from IPAs that were mounted in vertical 5-ml organ baths of a computerized isolated organ bath system (IOX, EMKA Technologies, Paris), as described in Bonnet, S., et al. (2001, Am. J. Physiol. 281, L183-L192, which is incorporated by reference herein in its entirety). Baths were filled with Krebs-Henseleit solution (composition in mM: 118.4 NaCl/4.7 KCl/2.5 CaCl2/1.2 MgSO4/1.2 KH2PO4/25 NaHCO3/11.1 D-glucose, pH 7.4). The baths were maintained at 37° C. and bubbled with a 95% O2/5% CO2 gas mixture. […] A concentration increment was made once the maximal contractile effect of the preceding concentration had been recorded.

[4] = cited from earlier work
BKCa [5] = biological target: T2, BKCa (Homo sapiens, UniProt Q12791); conditions: hypoxic human pulmonary cells, Peng et al. 1999; cited from earlier work
T2 construct: host or cells: hypoxic human pulmonary cells
T2 sequence (Q12791 whole entry): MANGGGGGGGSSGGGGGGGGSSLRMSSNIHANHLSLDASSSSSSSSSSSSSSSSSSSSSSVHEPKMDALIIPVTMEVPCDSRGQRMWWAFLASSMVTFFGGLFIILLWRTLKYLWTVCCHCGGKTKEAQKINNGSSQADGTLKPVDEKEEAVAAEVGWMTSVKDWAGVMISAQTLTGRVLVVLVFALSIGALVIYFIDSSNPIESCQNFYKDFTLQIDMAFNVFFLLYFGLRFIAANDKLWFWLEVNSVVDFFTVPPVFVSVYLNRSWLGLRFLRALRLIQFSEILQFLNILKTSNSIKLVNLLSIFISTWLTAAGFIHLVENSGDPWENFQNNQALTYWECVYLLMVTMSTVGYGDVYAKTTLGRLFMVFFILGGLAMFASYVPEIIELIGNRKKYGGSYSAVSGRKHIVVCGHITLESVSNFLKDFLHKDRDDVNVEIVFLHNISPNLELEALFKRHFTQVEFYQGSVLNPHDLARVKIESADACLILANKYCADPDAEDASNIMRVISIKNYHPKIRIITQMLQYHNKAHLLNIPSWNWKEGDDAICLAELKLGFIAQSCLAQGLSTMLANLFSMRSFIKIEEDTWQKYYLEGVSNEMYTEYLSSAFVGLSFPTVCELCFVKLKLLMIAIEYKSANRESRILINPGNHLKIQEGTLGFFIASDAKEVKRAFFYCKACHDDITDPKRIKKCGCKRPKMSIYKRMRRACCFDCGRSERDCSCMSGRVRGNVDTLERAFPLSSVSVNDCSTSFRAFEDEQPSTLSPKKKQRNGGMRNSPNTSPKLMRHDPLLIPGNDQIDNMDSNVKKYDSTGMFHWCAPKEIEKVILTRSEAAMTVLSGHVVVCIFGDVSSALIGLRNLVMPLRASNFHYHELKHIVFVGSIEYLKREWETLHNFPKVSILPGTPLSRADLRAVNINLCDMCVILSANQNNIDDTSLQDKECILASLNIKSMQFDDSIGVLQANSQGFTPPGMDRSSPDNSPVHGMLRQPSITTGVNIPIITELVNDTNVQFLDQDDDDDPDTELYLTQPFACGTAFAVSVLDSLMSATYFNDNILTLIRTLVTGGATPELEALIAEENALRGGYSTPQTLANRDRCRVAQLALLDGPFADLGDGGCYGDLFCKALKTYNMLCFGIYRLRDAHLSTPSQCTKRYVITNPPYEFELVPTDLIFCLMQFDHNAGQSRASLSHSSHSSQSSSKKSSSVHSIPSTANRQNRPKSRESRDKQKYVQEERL

[6] = after 1 or 2 wk of hypoxia exposure with oral DHEA

C[C@]12CC[C@H](O)CC1=CC[C@@H]1[C@@H]2CC[C@]2(C)C(=O)CC[C@@H]12 [DHEA, dehydroepiandrosterone]
pressure response to an acute hypoxic challenge (acute hypoxic challenge): restored | resting [Ca2+]i value of PASMCs (PASMCs; CH-DHEA rats (3 wk oral DHEA), CH 143±7, control 69.2±2.2): 90.1 ± 3.2 nM | resting [Ca2+]i value of PASMCs (PASMCs; DHEA from day 15 to day 21 of chronic hypoxia, untreated 143±7): 105 ± 3 nM | effect on [Ca2+]i of PASMCs (PASMCs; oral DHEA for 1 week): significant decrease; also recorded: decrease in [Ca^2+]i | effect on [Ca2+]i of PASMCs (PASMCs; oral DHEA for 3 weeks): significant decrease; also recorded: decrease in [Ca^2+]i | effect of additional intravascular DHEA on PAP ([1]; 3-week CH-DHEA treated rats): did not further reduce PAP; also recorded: no effect | PAP ([1]; 3-wk CH rats, ten minutes after acute intravascular DHEA 3 mg/kg, before 34.5±1.7): 24.4±2.5 mmHg | dose dependence of PAP decrease ([1]; CH rats, intravascular, successively increasing doses up to 3 mg/kg): dose-dependent manner | effect on PAP/PAH ([1]; CH rats, single intravascular dose of DHEA 3 mg/kg): significant decrease in PAP; also recorded: significantly decreased PAH | PAP ([1]; CH-DHEA rats: oral DHEA 30 mg/kg every alternate day during 3 wk hypoxia, untreated CH 34.5±1.7): 21.7±1.1 mm Hg | decrease of PAP ([1]; CH-PAH rats, intravascular 0.03 mg/kg): ~10% | decrease in PAP ([1]; CH-PAH rats, intravascular 0.3 mg/kg): ~25% | decrease in PAP ([1]; CH-PAH rats, intravascular 3.0 mg/kg): ~45% | PAP, CH-DHEA vs control rats [1, 6]: no difference | effect of intravascular DHEA on PAP ([1]; control animals): no effect | effect on PAP/PAH (reversal) ([1]; hypertensive CH rats, 1-wk oral DHEA 30 mg/kg every alternate day): partially but significantly reversed; also recorded: significantly decreased PAH | effect on PAP (prevention) ([1]; oral DHEA for 3 weeks during chronic hypoxia, vs CH rats): significant preventive effect; also recorded: decreased; also recorded: almost entirely prevent | effect on PAP ([1]; oral DHEA, normoxic rats): no effect | PAP ([1]; rats 3 weeks in CH, oral DHEA during the last week, no DHEA 35.9±1.9): 21±1.1 mm Hg | RV wall thickness ([2]; CH-DHEA rats, oral DHEA during 3 wk hypoxia, untreated CH 2.74±0.5): 1.6±0.03 mm | RV wall thickness, CH-DHEA vs control rats [2, 6]: no difference | effect on RV wall thickness / right ventricle hypertrophy (prevention) ([2]; oral DHEA for 3 weeks during chronic hypoxia): significant preventive effect; also recorded: decreased; also recorded: almost entirely prevent | effect on RV wall thickness ([2]; oral DHEA, normoxic rats): no effect | RV wall thickness ([2]; rats 3 weeks in CH, oral DHEA during the last week, no DHEA 2.97±0.4): 1.91±0.2 mm | effect on [Ca2+]i (PASMCs from CH rats; DHEA 100 μM, PASMCs from normoxic, normoxic-DHEA and CH-DHEA rats): did not alter | resting [Ca2+]i value (PASMCs from CH rats; PASMCs from CH rats, 15 minute in vitro 100 μM DHEA, before 143±7): 82 ± 3 nM | effect on resting [Ca2+]i (PASMCs from CH rats; PASMCs from CH rats, in vitro DHEA 100 μM): significant decrease; also recorded: decrease of the resting [Ca^2+]i | increase of tension induced by IbTx (BKCa [3]; 100 nM IbTx): 52% | increase of tension induced by IbTx (BKCa [3]; 300 nM IbTx): 55% | sensitivity/reactivity of IPA rings to IbTx (BKCa [3]; rings from CH-DHEA rats vs CH rats): increase the sensitivity for IbTx; also recorded: increase in the IbTx response; also recorded: higher reactivity to IbTx | toxicity in short- and long-term human studies ([4]; Baulieu et al. 2000): without major toxicity | safety of large amounts in human patients ([4]; Tummala & Svec 1999): safely administered | action on BKCa (BKCa [5]): BKCa opener
